Measurements as given in publication PMC11677527, “Predicting Pharmacokinetics of Active Constituents in Spatholobi caulis by Using Physiologically Based Pharmacokinetic Models” (Pharmaceuticals, 2024).
Read-outs that look alike come from different tables or passages of the source.

Columns and labels:
Caco-2 cell monolayer = system: Caco-2 cell monolayer; set-up: method as in PMID 36680806, PMID 26501241; details: Caco-2 cell monolayer model; cited from earlier work
[1] = Verification pharmacokinetic experiment in rats, SPC 60 g crude drug/kg by gavage, UFLC-MS/MS, DAS 2.0; assay type: in vivo, rat
Method: To validate the accuracy of PBPK models in predicting the pharmacokinetics of SPC constituents at different oral doses, the pharmacokinetic behavior of these four constituents from SPC in rats were analyzed by UFLC-MS/MS. The parameters were calculated using Drug and Statistics Software version 2.0, and then these validated values (Val.) were used to check the accuracy of the Calc. values and evaluated by FE.
The pharmacokinetic fitting results of rats given 60 g crude drug/kg body weight of SPC by gavage were verified by experiments. The verification experiment was conducted according to our previous pharmacokinetic study. In brief, 1.5 mL suspension of SPC was given to rats by oral administration; 300 μL blood samples from orbital venous at 0.083, 0.25, 0.5, 0.75, 1.0, 1.5, 2, 3, 4, 6, 8, and 12 h were collected and pretreated with heparin sodium. After centrifugation, the plasma samples were obtained and further processed for subsequent detection by UFLC-MS/MS; the detailed analysis method is shown in Supplementary Data (Table S1 and Figure S1). The concentration-time curve of each compound was gained, and the pharmacokinetic parameters were calculated using DAS 2.0 software (DAS 2.0, Mathematical Pharmacology Professional Committee of China, Shanghai, China). The results of these four constituents were compared with the PBPK parameters predicted in rats at an oral dose of 60 g crude drug/kg body weight of SPC.
1. The instrument and analytical conditions of UFLC-MS/MS method
4 constituents (1. 3′-methoxydadizein; 2. 8-O-methylretusin; 3. Daidzin; and 4. […]
The internal standard (IS) carbamazepine with a purity of more than 99 % was purchased from Beijing JK-chemical technology Co. Ltd., (Beijing China). Heparin sodium was gained from Tianjin biochemical pharmaceutical Co. Ltd, (Tianjin, China).
Ammonium acetate of HPLC grade, methanol and acetonitrile of LC-MS grade were purchased from Sigma (LOT# BCBK6717V, sigma-aldrich, Co., MO, USA) and Fisher (Fisher Corp., Fair lawn, NJ, USA) respectively. The experimental ultrapure water was prepared by Millipore Milli-Q ultrapure water preparation apparatus (Millipore Sigma, […]
The detailed information of Shimadzu UFLC-MS/MS 8050 liquid mass system equipped with Nexera X2UFLC liquid chromatography system and 8050 triple quadrupole mass spectrometers with an electrospray ionization source were listed in our previous study. The supporting LabSolution workstation was used for data […]
The separation without superposition of analytes in plasma sample was achieved on a Kinetex® C18 chromatographic column (100mm×2.1mm i.d.; 2.6 μm, 100 Å; Phenomenex, Inc., Torrance, CA, USA) assembled with a Phenomenex p/n AJ0-9000 C18 protection column. The mobile phase was consisted of 0.5 mM ammonium acetate in water (A) and ACN (B). The gradient elution program was selected ultimately as […]
95 % B (18.7–22 min). Column and automatic sampler temperature were set as 30 °C and 4 °C respectively. The flow rate of mobile phase was 0.35 mL/min while sample injection volume was 4 μL.
Multiple reaction monitoring (MRM) of positive or negative modes were used as scanning modes for the analytes and IS. Other essential parameters were successively optimized as: Nebulizing gas flow, 3 L/min; Heating gas flow, 10 L/min; Drying gas flow, 10 L/min; Interface temperature, 300 °C; DL temperature, 250 °C; Interface and detector voltage were each set as 3.0 kV and 1.8 kV. The detection parameters such as retention time (RT), dwell time (DT), quadrupole 1 pre-rod bias (Q1), collision energy […]
Table S1 The retention time and ion equivalent parameters of 4 constituents in rat […]
Constituents Retention Precursor Precursor Product time Pre energy Pre time (min) ion species ion ion (msec) Bias (V) Bias

[2] = set-up: method as in PMID 34303214; details: rats, p.o. SPC 30 g crude drug/kg; doses of 1-4: 0.062, 0.11, 0.71, 1.31 mg/kg; cited from earlier work
[3] = Observed pharmacokinetics in rats after oral SPC (previous study); assay type: in vivo, rat; details: p.o. SPC
[4] = compartment model parameters, DAS 2.0, rats p.o. SPC 60 g crude drug/kg, Mean, 5 rats
[5] = statistical moment parameters, DAS 2.0, rats p.o. SPC 60 g crude drug/kg, Mean, 5 rats
[6] = statistical moment parameters, DAS 2.0, rats p.o. SPC 60 g crude drug/kg, Mean, 5 rats, in µg·h²/mL

COc1cc([C@H]2c3cc(O)c(OC)cc3C[C@@H](CO)[C@@H]2CO)ccc1O [Constituent 4, isolariciresinol]
Papp (Caco-2 cell monolayer): 2.2 ×10⁻⁶ cm/s | K10 [1, 4]: 7.512 h⁻¹ | K12 [1, 4]: 0.448 h⁻¹ | K21 [1, 4]: 0.247 h⁻¹ | Ka [1, 4]: 5.032 h⁻¹ | Tlag [1, 4]: 0 h | V1/F [1, 4]: 29.573 L/kg | t1/2Ka [1, 4]: 0.175 h | t1/2α [1, 4]: 0.433 h | concentration at 0.083 h ([1]; rat, plasma, oral, time 0.083 h, rats p.o. SPC 60 g crude drug/kg, doses of 1-4: 0.124, 0.22, 1.4, 2.62 mg/kg, 5 rats): 15.4 ng/mL | concentration at 0.25 h ([1]; rat, plasma, oral, time 0.25 h, rats p.o. SPC 60 g crude drug/kg, doses of 1-4: 0.124, 0.22, 1.4, 2.62 mg/kg, 5 rats): 41.5 ng/mL | concentration at 0.5 h ([1]; rat, plasma, oral, time 0.5 h, rats p.o. SPC 60 g crude drug/kg, doses of 1-4: 0.124, 0.22, 1.4, 2.62 mg/kg, 5 rats): 41.7 ng/mL | concentration at 0.75 h ([1]; rat, plasma, oral, time 0.75 h, rats p.o. SPC 60 g crude drug/kg, doses of 1-4: 0.124, 0.22, 1.4, 2.62 mg/kg, 5 rats): 27.6 ng/mL | concentration at 1 h ([1]; rat, plasma, oral, time 1 h, rats p.o. SPC 60 g crude drug/kg, doses of 1-4: 0.124, 0.22, 1.4, 2.62 mg/kg, 5 rats): 22.2 ng/mL | concentration at 1.5 h ([1]; rat, plasma, oral, time 1.5 h, rats p.o. SPC 60 g crude drug/kg, doses of 1-4: 0.124, 0.22, 1.4, 2.62 mg/kg, 5 rats): 8.29 ng/mL | concentration at 2 h ([1]; rat, plasma, oral, time 2 h, rats p.o. SPC 60 g crude drug/kg, doses of 1-4: 0.124, 0.22, 1.4, 2.62 mg/kg, 5 rats): 7.03 ng/mL | concentration at 3 h ([1]; rat, plasma, oral, time 3 h, rats p.o. SPC 60 g crude drug/kg, doses of 1-4: 0.124, 0.22, 1.4, 2.62 mg/kg, 5 rats): 4.27 ng/mL | concentration at 4 h ([1]; rat, plasma, oral, time 4 h, rats p.o. SPC 60 g crude drug/kg, doses of 1-4: 0.124, 0.22, 1.4, 2.62 mg/kg, 5 rats): 3.41 ng/mL | concentration at 6 h ([1]; rat, plasma, oral, time 6 h, rats p.o. SPC 60 g crude drug/kg, doses of 1-4: 0.124, 0.22, 1.4, 2.62 mg/kg, 5 rats): 2.01 ng/mL | AUC(0-t) ([1]; rat, plasma, po, 2.62 mg/kg, compartment model parameters, DAS 2.0, rats p.o. SPC 60 g crude drug/kg, Mean, 5 rats, read-out: AUC(0-t)): 46.4 ng·h/mL | AUC(0-inf) ([1]; rat, plasma, po, 2.62 mg/kg, compartment model parameters, DAS 2.0, rats p.o. SPC 60 g crude drug/kg, Mean, 5 rats, read-out: AUC(0-∞)): 52.8 ng·h/mL | CL/F ([1]; rat, plasma, po, 2.62 mg/kg, compartment model parameters, DAS 2.0, rats p.o. SPC 60 g crude drug/kg, Mean, 5 rats, read-out: CL/F (converted)): 1660 mL/min/kg | half-life ([1]; rat, plasma, po, 2.62 mg/kg, compartment model parameters, DAS 2.0, rats p.o. SPC 60 g crude drug/kg, Mean, 5 rats, read-out: t1/2β (converted)): 17.4 h | AUC(0-t) ([1]; rat, plasma, po, 2.62 mg/kg, rats, p.o. SPC 60 g crude drug/kg, doses of 1-4: 0.124, 0.22, 1.42, 2.62 mg/kg, n = 5, read-out: AUC0→t Val.): 55.7 ng·h/mL | AUC(0-inf) ([1]; rat, plasma, po, 2.62 mg/kg, rats, p.o. SPC 60 g crude drug/kg, doses of 1-4: 0.124, 0.22, 1.42, 2.62 mg/kg, n = 5, read-out: AUC0→∞ Val.): 59.3 ng·h/mL | Cmax ([1]; rat, plasma, po, 2.62 mg/kg, rats, p.o. SPC 60 g crude drug/kg, doses of 1-4: 0.124, 0.22, 1.42, 2.62 mg/kg, n = 5, read-out: Cmax Val.): 41.7 ng/mL | AUC(0-t) ([1]; rat, plasma, po, 2.62 mg/kg, statistical moment parameters, DAS 2.0, rats p.o. SPC 60 g crude drug/kg, Mean, 5 rats, read-out: AUC(0-t)): 55.7 ng·h/mL | AUC(0-inf) ([1]; rat, plasma, po, 2.62 mg/kg, statistical moment parameters, DAS 2.0, rats p.o. SPC 60 g crude drug/kg, Mean, 5 rats, read-out: AUC(0-∞)): 59.3 ng·h/mL | CL/F ([1]; rat, plasma, po, 2.62 mg/kg, statistical moment parameters, DAS 2.0, rats p.o. SPC 60 g crude drug/kg, Mean, 5 rats, read-out: CLz/F (converted)): 738 mL/min/kg | Cmax ([1]; rat, plasma, po, 2.62 mg/kg, statistical moment parameters, DAS 2.0, rats p.o. SPC 60 g crude drug/kg, Mean, 5 rats, read-out: Cmax): 41.7 ng/mL | MRT last ([1]; rat, plasma, po, 2.62 mg/kg, statistical moment parameters, DAS 2.0, rats p.o. SPC 60 g crude drug/kg, Mean, 5 rats, read-out: MRT(0-t)): 1.48 h | MRT inf ([1]; rat, plasma, po, 2.62 mg/kg, statistical moment parameters, DAS 2.0, rats p.o. SPC 60 g crude drug/kg, Mean, 5 rats, read-out: MRT(0-∞)): 2.08 h | Tmax ([1]; rat, plasma, po, 2.62 mg/kg, statistical moment parameters, DAS 2.0, rats p.o. SPC 60 g crude drug/kg, Mean, 5 rats, read-out: Tmax): 0.3 h | Vd/F ([1]; rat, plasma, po, 2.62 mg/kg, statistical moment parameters, DAS 2.0, rats p.o. SPC 60 g crude drug/kg, Mean, 5 rats, read-out: Vz/F): 111 L/kg | half-life ([1]; rat, plasma, po, 2.62 mg/kg, statistical moment parameters, DAS 2.0, rats p.o. SPC 60 g crude drug/kg, Mean, 5 rats, read-out: t1/2z (converted)): 1.73 h | Cz [1, 5]: 1.39 µg/L | VRT(0-t) [1, 5]: 2.067 h^2 | VRT(0-∞) [1, 5]: 6.027 h^2 | elimination rate constant [1, 5]: 0.412 h⁻¹ | AUMC(0-t) [1, 6]: 82.484 | AUMC(0-∞) [1, 6]: 123.911 | AUC0→t Obs. [2]: 34.7 ng·h/mL | AUC0→∞ Obs. [2]: 38.3 ng·h/mL | Cmax Obs. [2]: 26.2 ng/mL | Tmax Obs. [2]: 0.31 h | time of slight secondary absorption peak [3]: 6 h
